Laboratory results reported in patent US8716285B2, “N-hydroxy-benzamids for the treatment of cancer” (Hoffmann-La Roche Inc., priority 2010, dated 2014).

Assays:
recombinant human HDAC8 = recombinant human HDAC8 (Homo sapiens (Human), UniProt Q9BY41); assay: HDAC8 inhibition: recombinant HDAC8 fluorometric assay; format: biochemical; details: recombinant human HDAC8, substrate Ac-Arg-His-Lys-Lys(ε-acetyl)-AMC
Procedure: A competitive inhibitory assay of HDAC8 was carried out by using recombinant HDAC8 and a commercial substrate Ac-Arg-His-Lys-Lys(ε-acetyl)-AMC.
Compounds were tested for their ability to inhibit histone deacetylase 8 using an in vitro deacetylation assay. The enzyme source for this assay was recombinant human HDAC8 protein expressed and purified from insect cells. […] The substrate consisted of a commercial product Ac-Arg-His-Lys-Lys(ε-acetyl)-AMC (substrate is available from Cayman Chemical). […] In a detailed procedure, 8 μl of HDAC8 enzyme solution (0.125 μg/μl) was transferred to assay plates (CORNING 3676). 1 μl of half-log diluted compounds were added into wells and incubated for 15 min at rt. After that, 8 μl of substrate solution was transferred to the wells and incubated for 30 min at rt. After deacetylation of the substrate by incubation with HDAC8 enzyme, subsequent exposure to a developing reagent produced a fluorophore that was directly proportional to the level of deacetylation. So 4 μl of developer regent (Cayman 10006394) was added into the wells in the assay plates and incubated for 15 min. The fluorescence signal was measured by a FlexStation3 plate reader (excitation wave length 340-360 nm; emission wave length 440-465 nm). The IC50 was calculated after normalization and curve fitting using XLfit4.0 software. Inhibition %=[Mean(top)−signal(sample)]*100/[Mean(top)−Mean(bottom)].

HDAC6 = HDAC6 (Homo sapiens (Human), UniProt Q9UBN7); assay: Tubulin acetylation cytoblot assay (A549 cells); format: cell-based; details: 17-18 h, concentration for 50% induction of acetylated tubulin, read-out: Tub-ac EC50
Chain of HDAC6 (Q9UBN7 whole entry): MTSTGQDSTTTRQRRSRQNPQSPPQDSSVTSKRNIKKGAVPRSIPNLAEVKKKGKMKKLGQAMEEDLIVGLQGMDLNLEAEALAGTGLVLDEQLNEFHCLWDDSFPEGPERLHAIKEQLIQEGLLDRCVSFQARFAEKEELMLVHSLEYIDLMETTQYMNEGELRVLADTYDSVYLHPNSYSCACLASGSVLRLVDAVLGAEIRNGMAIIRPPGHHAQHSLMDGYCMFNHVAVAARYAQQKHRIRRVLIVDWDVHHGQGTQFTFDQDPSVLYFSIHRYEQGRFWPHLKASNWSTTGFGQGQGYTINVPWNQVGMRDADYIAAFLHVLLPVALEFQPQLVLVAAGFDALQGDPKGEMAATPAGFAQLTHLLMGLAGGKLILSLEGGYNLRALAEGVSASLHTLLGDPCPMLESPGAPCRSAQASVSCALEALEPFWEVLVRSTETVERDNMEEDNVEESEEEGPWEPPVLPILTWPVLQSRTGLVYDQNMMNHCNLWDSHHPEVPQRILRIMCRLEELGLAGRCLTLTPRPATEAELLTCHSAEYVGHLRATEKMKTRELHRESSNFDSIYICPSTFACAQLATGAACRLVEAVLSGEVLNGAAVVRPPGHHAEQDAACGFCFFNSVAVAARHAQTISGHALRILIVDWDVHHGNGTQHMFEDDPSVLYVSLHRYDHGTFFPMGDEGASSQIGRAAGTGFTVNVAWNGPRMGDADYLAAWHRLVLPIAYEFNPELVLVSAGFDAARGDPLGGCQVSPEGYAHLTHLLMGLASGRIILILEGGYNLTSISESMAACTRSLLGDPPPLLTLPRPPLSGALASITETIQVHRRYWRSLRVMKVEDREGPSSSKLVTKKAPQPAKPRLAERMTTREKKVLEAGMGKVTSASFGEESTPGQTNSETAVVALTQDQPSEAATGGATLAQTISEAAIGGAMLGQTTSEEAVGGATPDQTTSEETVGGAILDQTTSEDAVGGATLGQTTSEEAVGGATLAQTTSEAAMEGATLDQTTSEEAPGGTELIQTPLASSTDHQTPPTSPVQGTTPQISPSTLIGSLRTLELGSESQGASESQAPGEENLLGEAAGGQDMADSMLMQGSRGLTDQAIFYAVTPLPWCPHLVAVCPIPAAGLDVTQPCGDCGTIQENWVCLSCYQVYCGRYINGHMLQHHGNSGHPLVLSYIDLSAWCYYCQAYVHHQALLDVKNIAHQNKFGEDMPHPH
Procedure: Tubulin acetylation is a PD marker for HDAC6 inhibition. The extent of tubulin acetylation represents the inhibitory effect on HDAC6.
Novel compounds were tested for their ability to inhibit HDAC6 using a cell-based deacetylation assay. Tubulin acetylation was detected by the anti-acetylated tubulin antibody (Sigma) and horse radish peroxidase (HRP) conjugated secondary antibody (KangChen Bio. Tech.). […] 20 μl of diluted compound solution was transferred to the cell culture plate and incubated for 17-18 h. After medium removal and fixation by formaldehyde (3.7% paraformaldehyde in TBS), the cells in the plates were treated with 180 μl of −20° C. MeOH and incubated for 5 min at rt. The cell lysis was incubated with 75 μl of primary anti-acetylated tubulin antibody and secondary HRP conjugated antibody solution (1:750 anti-acetylated tubulin, 1:750 HRP conjugated anti-mouse IgG in antibody dilution buffer not containing sodium azide) for 4 h at 4° C. By adding the HRP substrate, enhanced chemiluminescence (ECL) reagent (GE Healthcare) generated luminescence corresponding to the level of tubulin acetylation. So that 75 μl of ECL was added into the wells and the luminescence from each well was immediately quantified by the plate reader. Based on the luminescence reading, the IC50s against HDAC6 of the tested compounds were calculated by plotting the curve with XLfit4.0 software. Inhibition %=[signal(sample)−Mean(bottom)]*100/[Mean(top)−Mean(bottom)]

[1] = system: p21 promoter-luciferase construct; assay: p21 reporter gene induction in HeLa cells transfected with p21 promoter-luciferase construct; format: cell-based; details: for p21 RP3: relative gene level of p21 induced compared to MS275 at 3 μM; for p21 RP10: relative level of p21 induced compared to MS275 at 10 μM; for p21 RP30: relative level of p21 induced compared to MS275 at 30 μM
Procedure: As a surrogate for in-cell HDAC1/2/3 inhibition, p21 induction was used as a counterscreen to evaluate the selectivity of the compounds in the present invention toward HDAC6 or HDAC8.
The novel compounds of the present invention were tested for their ability to induce p21 gene expression using a reporter gene assay involving HeLa cells transfected with a p21 promoter-luciferase construct. The p21 promoter contained the Sp1/Sp3 binding site for HDAC but not the upstream p53 binding site. Briefly, the day before transfection, HeLa cells were seeded at 11,000 cells/well in a 96-well culture plate and incubated at 37° C. in 5% CO2 overnight. A transfection media was prepared prior to transfection according to the following procedure: (1) 5 μl serum-free DMEM, 0.15 μl Fugene 6 reagent, 40 ng p21-luc, 10 ng GFP were mixed gently and incubated at rt for 30 minutes; (2), then 98 μl DMEM (with 10% FBS, 1% penicillin and streptomycin) was added to the DNA: Fugene 6 reagent complex and mixed gently. For transfection, the medium was removed and replaced with 100 μl/well transfection media which was prepared according to the procedure above. After incubating the cells for 24 hours at 37° C. in 5% CO2, fresh media and test compounds were added to the wells and the cells further incubated for 15 hours at 37° C. in 5% CO2. Cells were lysed by adding 80 μl/well of a cell culture lysis reagent (Promega). […] 100 μl luciferase assay reagent (Promega) was then added to every 20 μl cell lysate for luminometer detection. […] Induction activity for specific representative compounds can be found in Table 3.

Chain of recombinant human HDAC8 (Q9BY41 whole entry): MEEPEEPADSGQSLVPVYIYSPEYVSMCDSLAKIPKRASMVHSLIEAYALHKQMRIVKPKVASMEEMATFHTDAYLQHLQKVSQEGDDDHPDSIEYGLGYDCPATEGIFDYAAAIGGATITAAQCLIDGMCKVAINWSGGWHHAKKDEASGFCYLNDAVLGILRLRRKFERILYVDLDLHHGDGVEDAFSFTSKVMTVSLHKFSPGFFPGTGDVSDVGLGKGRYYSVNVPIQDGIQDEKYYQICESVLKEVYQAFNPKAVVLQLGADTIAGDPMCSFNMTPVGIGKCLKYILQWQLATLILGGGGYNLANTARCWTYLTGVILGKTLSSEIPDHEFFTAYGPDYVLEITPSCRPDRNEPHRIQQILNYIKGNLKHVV

Row | SMILES | IC50 (recombinant human HDAC8) | EC50 (HDAC6) | p21 RP3 [1] | p21 RP10 [1] | p21 RP30 [1]
1 | CCCCS(=O)(=O)NC1CCc2ccc(C(=O)NO)cc2C1 (stereo not drawn) [Example 39, 7-(Butane-1-sulfonylamino)-5,6,7,8-tetrahydro-naphthalene-2-carboxylic acid hydroxyamid] | 910 nM | 4200 nM | 0.08 | 0.03 | 0.04
2 | Cc1ccc(-c2ccnc(NC3CCc4ccc(C(=O)NO)cc4C3)n2)c(F)c1 (stereo not drawn) [Example 17, 7-[4-(2-Fluoro-4-methyl-phenyl)-pyrimidin-2-ylamino]-5,6,7,8-tetrahydro-naphthalene-2-carboxylic acid hydroxyamide] | 1100 nM | 2300 nM | −0.56 | −0.47 | −0.45
3 | Cc1ccc(-c2ccnc(NC3CCc4ccc(C(=O)NO)cc4C3)n2)cc1 (stereo not drawn) [Example 11, 7-(4-p-Tolyl-pyrimidin-2-ylamino)-5,6,7,8-tetrahydro-naphthalene-2-carboxylic acid hydroxyamide] | 800 nM | 5100 nM | −0.13 | −0.18 | −0.18
4 | O=C(NO)c1ccc2c(c1)CC(Nc1nccc(-c3ccc(F)cc3)n1)CC2 (stereo not drawn) [Example 12, 7-[4-(4-Fluoro-phenyl)-pyrimidin-2-ylamino]-5,6,7,8-tetrahydro-naphthalene-2-carboxylic acid hydroxyamide] | 260 nM | 970 nM | 0.10 | 0.00 | −0.10
5 | O=C(NO)c1ccc2c(c1)CC(Nc1ccc([N+](=O)[O-])cc1)CC2 (stereo not drawn) [Example 3, 7-(4-nitro-phenylamino)-5,6,7,8-tetrahydro-naphthalene-2-carboxylic acid hydroxyamide] | 3740 nM | 1860 nM | 0.08 | −0.08 | −0.06
6 | O=C(NO)c1ccc2c(c1)CC(Nc1nccc(-c3cnc4ccccc4c3)n1)CC2 (stereo not drawn) [Example 34, 7-(4-Quinolin-3-yl-pyrimidin-2-ylamino)-5,6,7,8-tetrahydro-naphthalene-2-carboxylic acid hydroxyamide] | 480 nM | 7860 nM | 0.42 | 0.31 | −0.02
7 | O=C(NO)c1ccc2c(c1)CC(Nc1ccccn1)CC2 (stereo not drawn) [Example 5, 7-(Pyridin-2-ylamino)-5,6,7,8-tetrahydro-naphthalene-2-carboxylic acid hydroxyamide] | 2900 nM | – | – | – | –
8 | O=C(/C=C/c1cccnc1)NC1CCc2ccc(C(=O)NO)cc2C1 (stereo not drawn) [Example 37, 7-((E)-3-Pyridin-3-yl-acryloylamino)-5,6,7,8-tetrahydro-naphthalene-2-carboxylic acid hydroxyamide] | 990 nM | – | −0.18 | −0.05 | –
9 | O=C(NO)c1ccc2c(c1)CC(Nc1nccc(-c3ccc(Oc4ccccc4)cc3)n1)CC2 (stereo not drawn) [Example 23, 7-[4-(4-Phenoxy-phenyl)-pyrimidin-2-ylamino]-5,6,7,8-tetrahydro-naphthalene-2-carboxylic acid hydroxyamide] | 1440 nM | – | 0.30 | 0.00 | −0.10
10 | O=C(NO)c1ccc2c(c1)CC(Nc1nccc(-c3ccc4ccccc4c3)n1)CC2 (stereo not drawn) [Example 33, 7-(4-Naphthalen-2-yl-pyrimidin-2-ylamino)-5,6,7,8-tetrahydro-naphthalene-2-carboxylic acid hydroxyamide] | 3780 nM | – | 0.19 | −0.20 | −0.25

Now from value to compound, other results behind:

Row | IC50 (recombinant human HDAC8) | EC50 (HDAC6) | SMILES | p21 RP3 [1] | p21 RP10 [1] | p21 RP30 [1]
11 | 1460 nM | – | O=C(NO)c1ccc2c(c1)CC(NS(=O)(=O)c1ccc(Cl)cc1)CN2 (stereo not drawn) [Example 60, 3-(4-Chloro-benzenesulfonylamino)-1,2,3,4-tetrahydro-quinoline-6-carboxylic acid hydroxyamide] | 0.46 | 0.10 | 0.04
12 | 2850 nM | 7990 nM | O=C(NO)c1ccc2c(c1)CC(NC(=O)c1ccc(-c3ccccc3)cc1)CN2 (stereo not drawn) [Example 59, 3-[(Biphenyl-4-carbonyl)-amino]-1,2,3,4-tetrahydro-quinoline-6-carboxylic acid hydroxyamide] | 0.20 | 0.08 | 0.15
13 | 850 nM | 1070 nM | O=C(NO)c1ccc2c(c1)CC(NS(=O)(=O)c1ccc(Cl)cc1)CC2 (stereo not drawn) [Example 41, 7-(4-Chloro-benzenesulfonylamino)-5,6,7,8-tetrahydro-naphthalene-2-carboxylic acid hydroxyamide] | −0.15 | 0.35 | 0.05
14 | 1140 nM | – | O=C(NO)c1ccc2c(c1)CC(NS(=O)(=O)c1cccc(F)c1)CN2 (stereo not drawn) [Example 62, 3-(3-Fluoro-benzenesulfonylamino)-1,2,3,4-tetrahydro-quinoline-6-carboxylic acid hydroxyamide] | 0.13 | 0.02 | 0.01
15 | 1610 nM | – | O=C(NO)c1ccc2c(c1)CC(NS(=O)(=O)c1cccc(OC(F)(F)F)c1)CN2 (stereo not drawn) [Example 63, 3-(3-Trifluoromethoxy-benzenesulfonylamino)-1,2,3,4-tetrahydro-quinoline-6-carboxylic acid hydroxyamide] | 0.11 | 0.04 | 0.01
16 | 160 nM | – | O=C(NO)c1ccc2c(c1)CC(NS(=O)(=O)c1cccc(Cl)c1)CC2 (stereo not drawn) [Example 42, 7-(3-Chloro-benzenesulfonylamino)-5,6,7,8-tetrahydro-naphthalene-2-carboxylic acid hydroxyamide] | – | – | –
17 | – | 11800 nM | O=C(NO)c1ccc2c(c1)CC(Nc1nccc(-c3cccnc3)n1)CN2 (stereo not drawn) [Example 53] | 0.18 | 0.03 | 0.02
18 | 1220 nM | – | COc1ccc(S(=O)(=O)NC2CNc3ccc(C(=O)NO)cc3C2)cc1OC (stereo not drawn) [Example 64, 3-(3,4-Dimethoxy-benzenesulfonylamino)-1,2,3,4-tetrahydro-quinoline-6-carboxylic acid hydroxyamide] | −0.02 | 0.06 | 0.04
19 | – | 4300 nM | O=C(NO)c1cc2c(cc1F)CCC(Nc1ncccn1)C2 (stereo not drawn) [Example 49, 3-Fluoro-7-(pyrimidin-2-ylamino)-5,6,7,8-tetrahydro-naphthalene-2-carboxylic acid hydroxyamide] | 0.50 | 0.08 | 0.00
20 | 970 nM | – | O=C(NO)c1ccc2c(c1)CC(NS(=O)(=O)c1cccc(Cl)c1)CN2 (stereo not drawn) [Example 61, 3-(3-Chloro-benzenesulfonylamino)-1,2,3,4-tetrahydro-quinoline-6-carboxylic acid hydroxyamide] | 0.21 | 0.07 | 0.04
